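Values below derive from 48-hour exposures of cells grown in 96-well plates, with endpoints linearly interpolated between the two concentrations bracketing the appropriate inhibition level. At the TGI there is no net growth.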
Experiments:
Assay in all cases: DTP human tumour cell line panel, 48 h
HCT-15 colon = test system: HCT-15 colon
EKVX NSCLC = test system: EKVX NSCLC
SW-620 colon = test system: SW-620 colon
K-562 leukemia = test system: K-562 leukemia
MOLT-4 leukemia = test system: MOLT-4 leukemia
SK-MEL-28 melanoma = test system: SK-MEL-28 melanoma
NCI-H522 lung = test system: NCI-H522 lung
BT-549 breast = test system: BT-549 breast
HCC-2998 colon = test system: HCC-2998 colon
SK-MEL-5 melanoma = test system: SK-MEL-5 melanoma
MDA-N = test system: MDA-N
HS 578T breast = test system: HS 578T breast
NCI/ADR-RES ovarian = test system: NCI/ADR-RES ovarian
M14 melanoma = test system: M14 melanoma
OVCAR-3 ovarian = test system: OVCAR-3 ovarian
HOP-92 NSCLC = test system: HOP-92 NSCLC
MDA-MB-231 breast = test system: MDA-MB-231 breast
IGROV1 ovarian = test system: IGROV1 ovarian
ACHN renal = test system: ACHN renal
U251 CNS = test system: U251 CNS
SF-295 CNS = test system: SF-295 CNS
A549 NSCLC = test system: A549 NSCLC
MCF7 breast = test system: MCF7 breast
NCI-H226 lung = test system: NCI-H226 lung
SNB-19 CNS = test system: SNB-19 CNS
RPMI-8226 leukemia = test system: RPMI-8226 leukemia
SF-268 CNS = test system: SF-268 CNS
HT29 colon = test system: HT29 colon
NCI-H23 lung = test system: NCI-H23 lung
COLO 205 colon = test system: COLO 205 colon
LOX IMVI melanoma = test system: LOX IMVI melanoma
SK-MEL-2 melanoma = test system: SK-MEL-2 melanoma
UACC-257 melanoma = test system: UACC-257 melanoma
HL-60(TB) leukemia = test system: HL-60(TB) leukemia
CCRF-CEM leukemia = test system: CCRF-CEM leukemia
SNB-75 CNS = test system: SNB-75 CNS
NCI-H460 lung = test system: NCI-H460 lung
PC-3 prostate = test system: PC-3 prostate
T-47D breast = test system: T-47D breast
786-0 renal = test system: 786-0 renal
HCT-116 colon = test system: HCT-116 colon
OVCAR-4 ovarian = test system: OVCAR-4 ovarian
OVCAR-8 ovarian = test system: OVCAR-8 ovarian
MALME-3M melanoma = test system: MALME-3M melanoma
UACC-62 melanoma = test system: UACC-62 melanoma
OVCAR-5 ovarian = test system: OVCAR-5 ovarian
SF-539 CNS = test system: SF-539 CNS
SK-OV-3 ovarian = test system: SK-OV-3 ovarian
MDA-MB-435 = test system: MDA-MB-435
CAKI-1 renal = test system: CAKI-1 renal
UO-31 renal = test system: UO-31 renal
SN12C renal = test system: SN12C renal
KM12 colon = test system: KM12 colon
DU-145 prostate = test system: DU-145 prostate
HOP-62 NSCLC = test system: HOP-62 NSCLC
TK-10 renal = test system: TK-10 renal
RXF 393 renal = test system: RXF 393 renal

Measured: TGI

C=C1C(=O)OC2C1CC(OC(C)=O)/C(C)=C/CCC1(C)OC21 (configuration not stated)
not listed: HOP-62 NSCLC | TK-10 renal | RXF 393 renal
> 100 µM: all other assays above

CCCO[C@@H]1[C@@H](OC(C)=O)[C@@H](OC(C)=O)C(C)(C)/C=C/[C@H](C)C(=O)[C@@]2(OC(C)=O)C[C@@](C)(OC(C)=O)[C@H](OC(C)=O)[C@@H]2[C@H]2OC(=O)CC[C@@]12OC(=O)c1ccccc1
not listed: SK-MEL-28 melanoma | A549 NSCLC | RPMI-8226 leukemia | 786-0 renal
> 25 µM: all other assays above

Source: PubChem BioAssay (NCI)
